# Laboratory results taken from patent US11512053B2, “Arginine methyltransferase inhibitors and uses thereof” (priority 2013, dated 2022).
# Where a name gives a salt, the structure may show the parent alone. Read-outs that look alike come from different tables or passages of the source.
# Assays:
# [1] = biological target: full-length human PRMT8 isoform 1 (Homo sapiens, UniProt Q9NR22); experiment: PRMT8 Biochemical Assay (3H-SAM Flashplate, peptide substrate)
# Procedure, shortened: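 Scintillation Flashplate capture of biotinylated histone H4 (31-45) peptide (150 nM) methylated by 1.5 nM PRMT8 using 3H-SAM (50 nM) with unlabelled SAM (550 nM); enzyme and compound preincubated 30 min, room temperature, in Bicine pH 7.6 buffer with TCEP, BSG, Tween 20 and 2% DMSO. Stopped with excess cold SAM (400 uM); IC50 from % inhibition, min control 1 mM SAH.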
# [2] = tested on: mono-methyl arginine in RKO cells; experiment: RKO Methylation Assay, In Cell Western (ICW) for detection of mono-methyl arginine and DNA content; format: cell-based; details: for EC30: Homo sapiens, RKO, 72 h
# Procedure, shortened: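 RKO cells were treated with compound for 72 hours at 37 °C, methanol-fixed and stained overnight at 4 °C with anti-mono-methyl arginine (1:200), with DRAQ5 for DNA. Odyssey 800/700 nm intensity ratio was normalized to DMSO and 20 μM reference-compound controls. EC30 from triplicate nine-point curves.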
# [3] = single experiment or average of multiple experiments, read-out: Biochemical IC50 PRMT8
# [4] = RKO cells, 72 hours compound incubation, mono-methyl arginine signal normalised to DNA content (DRAQ5), percent activation vs 20 μM reference compound, read-out: In Cell Western EC30
# [5] = RKO cells, 72 hours incubation, mono-methyl arginine signal normalised to DNA content, single experiment or average of multiple experiments, read-out: In Cell Western EC30
# [6] = RKO cells, 72 hours compound incubation, mono-methyl arginine signal normalised to DNA content (DRAQ5), percent activation vs 20 μM reference compound
# [7] = read-out: Biochemical IC50 PRMT8
# [8] = Biochemical IC50 PRMT8, single experiment or average of multiple experiments
# [9] = read-out: In Cell Western EC30, RKO cells, 72 hours compound incubation, mono-methyl arginine signal normalised to DNA content (DRAQ5), percent activation vs 20 μM reference compound
# [10] = read-out: In Cell Western EC30, RKO cells, 72 hours incubation, mono-methyl arginine signal normalised to DNA content, single experiment or average of multiple experiments
# full-length human PRMT8 isoform 1, sequence (Q9NR22 whole entry, canonical isoform): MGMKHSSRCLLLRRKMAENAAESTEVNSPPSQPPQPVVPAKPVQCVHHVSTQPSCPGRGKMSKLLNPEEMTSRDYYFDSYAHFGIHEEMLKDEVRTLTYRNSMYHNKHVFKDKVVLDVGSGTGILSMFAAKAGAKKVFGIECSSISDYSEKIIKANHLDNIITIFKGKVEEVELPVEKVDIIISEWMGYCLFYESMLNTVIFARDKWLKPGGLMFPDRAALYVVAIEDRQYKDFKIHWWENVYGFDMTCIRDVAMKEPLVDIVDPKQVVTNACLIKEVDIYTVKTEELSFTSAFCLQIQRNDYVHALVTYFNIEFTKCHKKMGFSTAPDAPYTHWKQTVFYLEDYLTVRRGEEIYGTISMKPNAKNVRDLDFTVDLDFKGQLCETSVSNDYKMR
SMILES,"IC50 [1, 3] [µM]","IC50 [1, 7] [µM]",IC50 ([1]; Biochemical IC50 PRMT8) [µM],"IC50 [1, 8] [µM]","EC30 [2, 4] [µM]","EC30 [2, 5] [µM]","In Cell Western EC30 [2, 6]","EC30 [2, 9] [µM]","EC30 [2, 10] [µM]"
"CNCCN(C)Cc1c[nH]nc1C1CCN(C(=O)CC(C)C)CC1 [Compound 40, 3-methyl-1-(4-(4-((methyl(2-(methylamino)ethyl)amino)methyl)-1H-pyrazol-3-yl)piperidin-1-yl)butan-1-one]",7.01,–,–,–,< 3,0.87,–,–,–
CNCCN(C)Cc1c[nH]nc1C1CCN(C)CC1 [Compound 41],0.35,–,–,–,–,> 20,C (“C” indicates an EC30 > 12.01 μM),–,–
CNCCN(C)Cc1c[nH]nc1C1CCNCC1 [Compound 42],0.03,–,–,–,–,> 20,C (“C” indicates an EC30 > 12.01 μM),–,–
"CN(CCN)Cc1n[nH]cc1C1CCC(N2CCOCC2)CC1 (stereo not drawn) [Compound 44, N^1-methyl-N^1-((4-(4-morpholinocyclohexyl)-1H-pyrazol-3-yl)methyl)ethane-1,2-diamine]",0.0624,–,–,–,–,4.57,B (“B” indicates an EC30 of 3.01-12.00 μM),–,–
CN(CCN)Cc1c[nH]nc1C1CCC2(CCCC2)CC1 [Compound 45],0.0053,–,–,–,< 3,0.054,–,–,–
CNCCN(C)Cc1c[nH]nc1C1CCC2(CCCCC2)CC1 [Compound 46],0.0062,–,–,–,< 3,0.008,–,–,–
CNCCN(C)Cc1cn(C)nc1C1CCC2(CCCC2)CC1 [Compound 47],0.0125,–,–,–,–,0.052,–,–,–
CNCCN(C)Cc1c[nH]nc1C1CCC2(CCCC2)CC1 [Compound 48],0.0083,–,–,–,< 3,0.014,–,–,–
CNCCN(C)Cc1cnn(C)c1C1CCC2(CCCC2)CC1 [Compound 49],0.0073,–,–,–,–,0.05,–,–,–
CNCCN(C)Cc1c[nH]nc1C1CCC(C(C)C)CC1 (stereo not drawn) [Compound 50],0.0112,–,–,–,< 3,0.027,–,–,–
CNCCN(C)Cc1c[nH]nc1C1CCC2(CCCO2)CC1 (stereo not drawn) [Compound 51],0.0214,–,–,–,< 3,0.052,–,–,–
CNCCN(C)Cc1c[nH]nc1C1CCC(C)(C)CC1 [Compound 52],0.0104,–,–,–,–,0.041,–,–,–
CNCCN(C)Cc1c[nH]nc1C1CCC(COC)CC1 (stereo not drawn) [Compound 53],0.0128,–,–,–,< 3,0.017,–,–,–
CNCCN(C)Cc1c[nH]nc1C1CCC2(CCOC2)CC1 (stereo not drawn) [Compound 54],0.0247,–,–,–,< 3,0.087,–,–,–
"CNCCN(C)Cc1ccnn1C1CCC2(CC1)CC(C)(C)CO2 (stereo not drawn) [Compound 274, trifluoroacetate]",0.0119,< 0.1,–,–,–,–,–,< 3,0.0168
"CNCCN(C)Cc1ccnn1C1CCC2(CCCC2)CC1 [Compound 275, Methyl[2-(methylamino)ethyl][(1-[spiro[4.5]decan-8-yl]-1H-pyrazol-5-yl)methyl]amine trifluoroacetate]",0.0104,< 0.1,–,–,–,–,–,< 3,0.084

# More lines, main results first:
"IC50 [1, 3] [µM]","IC50 [1, 7] [µM]",IC50 ([1]; Biochemical IC50 PRMT8) [µM],"IC50 [1, 8] [µM]",SMILES,"EC30 [2, 4] [µM]","EC30 [2, 5] [µM]","In Cell Western EC30 [2, 6]","EC30 [2, 9] [µM]","EC30 [2, 10] [µM]"
0.0247,–,–,–,CNCCN(C)Cc1c[nH]nc1C1CCC(CCOC)CC1 (stereo not drawn) [Compound 55],< 3,0.063,–,–,–
0.032,–,–,–,CNCCN(C)Cc1c[nH]nc1C1CCC(OC(C)C)CC1 (stereo not drawn) [Compound 56],–,0.096,–,–,–
0.0301,–,–,–,CNCCN(C)Cc1c[nH]nc1C1CCC(COC)(COC)CC1 [Compound 57],< 3,0.025,–,–,–
0.0721,–,–,–,CNCCN(C)Cc1c[nH]nc1C1CCC(OCCOC)CC1 (stereo not drawn) [Compound 58],–,0.978,–,–,–
0.0484,–,–,–,CNCCN(C)Cc1c[nH]nc1C1CC(C)(C)OC(C)(C)C1 [Compound 59],–,0.357,–,–,–
0.129,–,–,–,CNCCN(C)Cc1c[nH]nc1C1CCC(COCCOC)(COCCOC)CC1 [Compound 60],< 3,2.84,–,–,–
0.02,< 0.1,–,–,CNCCN(C)Cc1c[nH]nc1C1CCC2(CCCCC2)OC1 (stereo not drawn) [Compound 62],< 3,0.169,–,–,–
0.012,< 0.1,–,–,CNCCN(C)Cc1c[nH]nc1C1CCC2(CC1)CC(C)OC(C)C2 (stereo not drawn) [Compound 63],< 3,1.09,–,–,–
0.0136,< 0.1,–,–,CNCCN(C)Cc1c[nH]nc1C1CCC2(CCC(C)(C)CC2)OC1 (stereo not drawn) [Compound 65],< 3,0.0775,–,–,–
0.0119,< 0.1,–,–,CNCCN(C)Cc1c[nH]nc1C1CCC(Oc2ccccc2)CC1 (stereo not drawn) [Compound 67],< 3,0.081,–,–,–
0.0242,< 0.1,–,–,CCC(CC)OC1CCC(c2n[nH]cc2CN(C)CCNC)CC1 (stereo not drawn) [Compound 70],< 3,0.05,–,–,–
3.97,3.01 to 10,–,–,CNCCN(C)Cc1c[nH]nc1C1CC(COC)C(C)(C)C(COC)C1 (stereo not drawn) [Compound 86],< 3,0.0168,–,–,–
1.01,1.01 to 3,–,–,CCOCC1CC(c2n[nH]cc2CN(C)CCNC)CC(COCC)C1(C)C (stereo not drawn) [Compound 87],< 3,2.53,–,–,–
0.117,0.101 to 1,–,–,CNCCN(C)Cc1c[nH]nc1C1CCC(C)(C)C(C(=O)NCC(C)C)C1 (stereo not drawn) [Compound 90],< 3,0.316,–,–,–
0.029,< 0.1,–,–,CNCCN(C)Cc1c[nH]nc1C1CCC(C)(C)C(C(=O)NCCC(C)C)C1 (stereo not drawn) [Compound 91],< 3,2.06,–,–,–
0.0421,< 0.1,–,–,CNCCN(C)Cc1c[nH]nc1C1CCC(C)(C)C(C(=O)NCc2ccccc2)C1 (stereo not drawn) [Compound 92],< 3,2.17,–,–,–
0.0189,< 0.1,–,–,CNCCN(C)Cc1c[nH]nc1C1CCC(C)(C)C(COCC(C)C)C1 (stereo not drawn) [Compound 95],< 3,0.122,–,–,–
–,–,< 0.1,0.0091,"CNCCN(C)Cc1c[nH]nc1[C@H]1CC[C@@]2(CC1)CC(C)(C)CO2 [Compound 133, Methyl[2-(methylamino)ethyl]([3-[(5s,8s)-3,3-dimethyl-1-oxaspiro[4.5]decan-8-yl]-1H-pyrazol-4-yl]methyl)amine]",–,–,–,< 3,0.0438
–,–,< 0.1,0.0248,"CNCCN(C)Cc1c[nH]nc1[C@H]1CC[C@]2(CC1)CC(C)(C)CO2 [Compound 134, methyl[2-(methylamino)ethyl]([3-[(5r,8r)-3,3-dimethyl-1-oxaspiro[4.5]decan-8-yl]-1H-pyrazol-4-yl]methyl)amine]",–,–,–,< 3,0.0332
